For one experiment, the target named is T1, BRG-1 (Homo sapiens, UniProt P51532).
T1 construct: made in house; host or cells: High Five insect cells
Nature of the experiment: ATPase catalytic activity of BRG-1, ADP-Glo in vitro biochemical assay. Particulars: ATPase catalytic activity, 30 nM BRG-1, 400 μM ATP, read-out: BRG1 IP50 (μM)*. (In general: ADP-Glo turns the ADP formed in a reaction into a luminescent signal.)

A further experiment has as its target T2, BRM (Homo sapiens, UniProt P51531).
T2 construct: made in house; host or cells: High Five insect cells
Kind of experiment: ATPase catalytic activity of BRM, ADP-Glo in vitro biochemical assay. To be noted: ATPase catalytic activity, 30 nM BRM, 400 μM ATP, read-out: BRM IP50 (μM)*.

Where “and” joins values, the source holds several entries; their conditions need not be identical. Identical values can stand only once. Some results are limits rather than exact numbers.

T2 sequence (P51531 whole entry): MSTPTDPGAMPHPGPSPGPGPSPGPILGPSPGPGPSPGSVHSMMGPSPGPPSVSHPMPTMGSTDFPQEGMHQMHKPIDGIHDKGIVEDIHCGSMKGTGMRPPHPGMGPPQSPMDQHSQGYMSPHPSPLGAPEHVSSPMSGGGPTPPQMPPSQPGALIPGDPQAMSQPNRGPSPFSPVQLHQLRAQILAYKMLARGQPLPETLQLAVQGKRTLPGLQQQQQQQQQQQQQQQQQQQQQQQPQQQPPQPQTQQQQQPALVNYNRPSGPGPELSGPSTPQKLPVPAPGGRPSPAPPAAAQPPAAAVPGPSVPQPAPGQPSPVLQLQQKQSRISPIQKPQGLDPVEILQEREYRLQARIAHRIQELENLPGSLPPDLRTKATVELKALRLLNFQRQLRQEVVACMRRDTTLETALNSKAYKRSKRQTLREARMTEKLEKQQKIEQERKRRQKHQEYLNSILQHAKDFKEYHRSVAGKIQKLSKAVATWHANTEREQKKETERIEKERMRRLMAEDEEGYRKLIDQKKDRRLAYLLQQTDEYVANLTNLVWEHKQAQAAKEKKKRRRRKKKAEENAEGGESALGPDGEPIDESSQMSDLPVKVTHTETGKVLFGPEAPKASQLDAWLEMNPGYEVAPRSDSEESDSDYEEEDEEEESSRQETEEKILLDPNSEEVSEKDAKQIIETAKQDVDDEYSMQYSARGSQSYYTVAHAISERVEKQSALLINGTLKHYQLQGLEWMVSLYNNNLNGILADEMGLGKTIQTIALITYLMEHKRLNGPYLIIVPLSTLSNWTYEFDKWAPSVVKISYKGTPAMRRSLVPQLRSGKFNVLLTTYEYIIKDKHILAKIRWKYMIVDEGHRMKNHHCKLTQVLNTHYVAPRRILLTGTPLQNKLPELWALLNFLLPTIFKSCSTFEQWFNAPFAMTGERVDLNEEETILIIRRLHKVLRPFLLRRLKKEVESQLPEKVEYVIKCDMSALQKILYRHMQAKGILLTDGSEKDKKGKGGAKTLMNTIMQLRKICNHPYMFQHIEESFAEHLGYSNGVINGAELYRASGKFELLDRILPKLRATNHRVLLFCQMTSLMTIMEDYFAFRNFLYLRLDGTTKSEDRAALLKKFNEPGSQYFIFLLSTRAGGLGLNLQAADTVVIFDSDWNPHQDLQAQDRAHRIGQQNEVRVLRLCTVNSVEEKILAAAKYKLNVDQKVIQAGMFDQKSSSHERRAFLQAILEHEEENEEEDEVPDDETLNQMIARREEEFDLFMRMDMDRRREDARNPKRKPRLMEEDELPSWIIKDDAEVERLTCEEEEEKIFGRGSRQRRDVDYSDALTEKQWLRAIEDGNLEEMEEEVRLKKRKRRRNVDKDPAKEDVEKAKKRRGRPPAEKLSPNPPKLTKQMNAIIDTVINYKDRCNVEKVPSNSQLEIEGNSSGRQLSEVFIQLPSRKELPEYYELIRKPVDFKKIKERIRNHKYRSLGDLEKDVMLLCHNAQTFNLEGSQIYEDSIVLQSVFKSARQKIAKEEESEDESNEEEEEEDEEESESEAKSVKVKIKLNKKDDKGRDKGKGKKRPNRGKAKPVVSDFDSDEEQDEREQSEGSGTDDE
T1 sequence (P51532 whole entry): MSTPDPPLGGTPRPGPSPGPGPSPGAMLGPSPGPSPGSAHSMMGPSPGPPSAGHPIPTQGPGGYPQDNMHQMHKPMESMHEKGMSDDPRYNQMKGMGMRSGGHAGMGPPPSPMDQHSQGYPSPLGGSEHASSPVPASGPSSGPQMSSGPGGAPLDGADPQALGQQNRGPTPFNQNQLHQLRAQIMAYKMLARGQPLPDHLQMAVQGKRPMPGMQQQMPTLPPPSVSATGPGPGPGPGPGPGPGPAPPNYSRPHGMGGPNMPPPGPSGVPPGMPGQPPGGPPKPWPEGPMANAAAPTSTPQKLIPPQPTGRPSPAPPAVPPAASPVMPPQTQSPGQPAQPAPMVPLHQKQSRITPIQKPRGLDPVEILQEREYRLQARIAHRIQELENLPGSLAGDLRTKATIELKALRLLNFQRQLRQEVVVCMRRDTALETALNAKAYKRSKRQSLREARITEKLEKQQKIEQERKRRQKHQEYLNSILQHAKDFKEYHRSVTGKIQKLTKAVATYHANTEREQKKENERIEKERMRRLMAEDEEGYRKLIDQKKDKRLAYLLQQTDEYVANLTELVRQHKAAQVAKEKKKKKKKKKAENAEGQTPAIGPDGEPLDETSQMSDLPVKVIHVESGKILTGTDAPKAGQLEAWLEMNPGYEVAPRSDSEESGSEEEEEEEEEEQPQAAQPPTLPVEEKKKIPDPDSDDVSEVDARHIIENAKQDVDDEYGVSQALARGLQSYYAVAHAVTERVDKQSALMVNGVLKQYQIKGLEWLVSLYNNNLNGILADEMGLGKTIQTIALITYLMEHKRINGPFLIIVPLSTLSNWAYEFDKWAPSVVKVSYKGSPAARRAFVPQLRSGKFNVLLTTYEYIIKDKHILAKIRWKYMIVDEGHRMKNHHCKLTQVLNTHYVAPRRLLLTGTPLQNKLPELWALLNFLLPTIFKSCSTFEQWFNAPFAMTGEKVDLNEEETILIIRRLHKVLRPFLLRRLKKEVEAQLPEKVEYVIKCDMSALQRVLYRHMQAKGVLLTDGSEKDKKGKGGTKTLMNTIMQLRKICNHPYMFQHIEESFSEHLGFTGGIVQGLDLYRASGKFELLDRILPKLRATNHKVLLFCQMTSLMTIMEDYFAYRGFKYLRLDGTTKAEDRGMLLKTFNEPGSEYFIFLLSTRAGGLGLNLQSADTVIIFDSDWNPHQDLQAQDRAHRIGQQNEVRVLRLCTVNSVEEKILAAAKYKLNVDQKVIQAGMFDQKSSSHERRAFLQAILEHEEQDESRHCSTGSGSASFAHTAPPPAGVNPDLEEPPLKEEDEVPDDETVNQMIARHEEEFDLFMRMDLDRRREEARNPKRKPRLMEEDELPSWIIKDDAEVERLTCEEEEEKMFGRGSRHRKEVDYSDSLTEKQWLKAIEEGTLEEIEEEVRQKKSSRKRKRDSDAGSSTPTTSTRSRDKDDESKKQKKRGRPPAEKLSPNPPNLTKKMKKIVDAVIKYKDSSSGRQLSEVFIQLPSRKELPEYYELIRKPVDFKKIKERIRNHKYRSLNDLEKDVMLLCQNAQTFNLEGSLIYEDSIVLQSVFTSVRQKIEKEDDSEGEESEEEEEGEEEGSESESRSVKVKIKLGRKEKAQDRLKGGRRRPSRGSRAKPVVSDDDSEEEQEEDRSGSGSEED

For the compound `CS(=O)(=O)n1ccc(C(=O)NCC(=O)Nc2nc(-c3cccc(-c4ccncc4)c3)cs2)n1` [Compound 45, 1-(methylsulfonyl)-N-(2-oxo-2-((4-(3-(pyridin-4-yl)phenyl)thiazol-2-yl)amino)ethyl)-1H-pyrazole-3-carboxamide], the IC50 at BRG-1 and on BRM was less than 0.01 µM in each case.

As to `CS(=O)(=O)n1cnc(C(=O)NCC(=O)Nc2nc(-c3cccc(-c4ccncc4)c3)cs2)c1` [Compound 46, 1-(methylsulfonyl)-N-(2-oxo-2-((4-(3-(pyridin-4-yl)phenyl)thiazol-2-yl)amino)ethyl)-1H-imidazole-4-carboxamide], the IC50 on BRG-1 and at BRM was less than 0.01 µM throughout.

Turning to `CN(C)S(=O)(=O)n1ccc(C(=O)NCC(=O)Nc2nc(-c3cccc(-c4ccncc4)c3)cs2)c1` [Compound 47, 1-(N,N-dimethylsulfamoyl)-N-(2-oxo-2-((4-(3-(pyridin-4-yl)phenyl)thiazol-2-yl)amino)ethyl)-1H-pyrrole-3-carboxamide], the IC50 on BRG-1 and at BRM was more than 0.01 µM in each case.

As for `CC(=O)n1ccc(C(=O)NCC(=O)Nc2nc(-c3cccc(-c4ccncc4)c3)cs2)c1` [Compound 50, 1-acetyl-N-(2-oxo-2-((4-(3-(pyridin-4-yl)phenyl)thiazol-2-yl)amino)ethyl)-1H-pyrrole-3-carboxamide], the IC50 at BRG-1 and at BRM was more than 0.1 µM in each case.

Regarding `CS(=O)(=O)n1ccc(C(=O)NCC(=O)Nc2nc(-c3cccc(-c4cccc(CN)c4)c3)cs2)c1` [Compound 53, N-(2-((4-(3′-(aminomethyl)-[1,1′-biphenyl]-3-yl)thiazol-2-yl)amino)-2-oxoethyl)-1-(methylsulfonyl)-1H-pyrrole-3-carboxamide], the IC50 at BRG-1 and on BRM was less than 0.01 µM throughout.

Take `CS(=O)(=O)n1ccc(C(=O)NCC(=O)Nc2nc(-c3cccc(-c4ccnc(N5CCNCC5)c4)c3)cs2)c1` [Compound 54, 1-(methylsulfonyl)-N-(2-oxo-2-((4-(3-(2-(piperazin-1-yl)pyridin-4-yl)phenyl)thiazol-2-yl)amino)ethyl)-1H-pyrrole-3-carboxamide]: the IC50 on BRG-1 and at BRM was less than 0.01 µM throughout.

With `Cc1cc(C)cc(-c2cccc(-c3csc(NC(=O)CNC(=O)c4ccn(S(C)(=O)=O)c4)n3)c2)c1` [Compound 55, N-(2-((4-(3′,5′-dimethyl-[1,1′-biphenyl]-3-yl)thiazol-2-yl)amino)-2-oxoethyl)-1-(methylsulfonyl)-1H-pyrrole-3-carboxamide], the IC50 on BRG-1 and on BRM was less than 0.01 µM in each case.

In the case of `Cc1cc(-c2cccc(-c3csc(NC(=O)CNC(=O)c4ccn(C(C)(C)C)c4)n3)c2)on1` [Compound 56, 1-(tert-butyl)-N-(2-((4-(3-(3-methylisoxazol-5-yl)phenyl)thiazol-2-yl)amino)-2-oxoethyl)-1H-pyrrole-3-carboxamide], the IC50 on BRG-1 and on BRM was more than 0.01 µM each time.

For the compound `CC(=O)N(C)c1cc(-c2cccc(-c3csc(NC(=O)CNC(=O)c4ccn(S(C)(=O)=O)c4)n3)c2)ccn1` [Compound 57, N-(2-((4-(3-(2-(N-methylacetamido)pyridin-4-yl)phenyl)thiazol-2-yl)amino)-2-oxoethyl)-1-(methylsulfonyl)-1H-pyrrole-3-carboxamide], the IC50 at BRG-1 and at BRM was less than 0.01 µM throughout.

As for `Cn1ccc(-c2cccc(-c3csc(NC(=O)CNC(=O)c4ccn(C(C)(C)C)c4)n3)c2)n1` [Compound 58, 1-(tert-butyl)-N-(2-((4-(3-(1-methyl-1H-pyrazol-3-yl)phenyl)thiazol-2-yl)amino)-2-oxoethyl)-1H-pyrrole-3-carboxamide], the IC50 at BRG-1 and at BRM was more than 0.01 µM in each case.

Turning to `CSCC[C@H](NC(=O)c1ccn(S(C)(=O)=O)c1)C(=O)Nc1nc(-c2cccc(-c3ccnc(C)c3)c2)cs1` [Compound 59, (S)—N-(1-((4-(3-(2-methylpyridin-4-yl)phenyl)thiazol-2-yl)amino)-4-(methylthio)-1-oxobutan-2-yl)-1-(methylsulfonyl)-1H-pyrrole-3-carboxamide], the IC50 on BRG-1 and on BRM was less than 0.01 µM in each case.

On to `COC[C@H](NC(=O)c1ccn(S(C)(=O)=O)c1)C(=O)Nc1nc(-c2cccc(-c3ccnc(C)c3)c2)cs1` [Compound 60, (S)—N-(3-methoxy-1-((4-(3-(2-methylpyridin-4-yl)phenyl)thiazol-2-yl)amino)-1-oxopropan-2-yl)-1-(methylsulfonyl)-1H-pyrrole-3-carboxamide], for which the IC50 at BRG-1 and on BRM was less than 0.01 µM in each case.

Turning to `COC[C@H](NC(=O)c1ccn(S(C)(=O)=O)c1)C(=O)Nc1nc(-c2cccc(-c3cc(C)nc(C)c3)c2)cs1` [Compound 61, (S)—N-(1-((4-(3-(2,6-dimethylpyridin-4-yl)phenyl)thiazol-2-yl)amino)-3-methoxy-1-oxopropan-2-yl)-1-(methylsulfonyl)-1H-pyrrole-3-carboxamide], the IC50 at BRG-1 and on BRM was less than 0.01 µM throughout.

`COC[C@H](NC(=O)c1ccn(C(C)(C)C)c1)C(=O)Nc1nc(-c2cccc(-c3ccn(C)n3)c2)cs1` [Compound 62, (S)-1-(tert-butyl)-N-(3-methoxy-1-((4-(3-(1-methyl-1H-pyrazol-3-yl)phenyl)thiazol-2-yl)amino)-1-oxopropan-2-yl)-1H-pyrrole-3-carboxamide]: the IC50 on BRG-1 and on BRM was more than 0.01 µM each time.

In the case of `COC[C@H](NC(=O)c1ccn(C(C)(C)C)c1)C(=O)Nc1nc(-c2ccc3ccn(C)c(=O)c3c2)cs1` [Compound 63, (S)-1-(tert-butyl)-N-(3-methoxy-1-((4-(2-methyl-1-oxo-1,2-dihydroisoquinolin-7-yl)thiazol-2-yl)amino)-1-oxopropan-2-yl)-1H-pyrrole-3-carboxamide], the IC50 at BRG-1 and on BRM was more than 0.01 µM each time.

Regarding `COC[C@H](NC(=O)c1ccn(C(C)(C)C)c1)C(=O)Nc1nc(-c2ccc3c(c2)C(=O)N(C)CC3)cs1` [Compound 64, (S)-1-(tert-butyl)-N-(3-methoxy-1-((4-(2-methyl-1-oxo-1,2,3,4-tetrahydroisoquinolin-7-yl)thiazol-2-yl)amino)-1-oxopropan-2-yl)-1H-pyrrole-3-carboxamide], the IC50 at BRG-1 and at BRM was more than 0.01 µM each time.

As for `COC[C@H](NC(=O)c1ccn(S(C)(=O)=O)c1)C(=O)Nc1nc(-c2cccc(-c3ccncn3)c2)cs1` [Compound 65, (S)—N-(3-methoxy-1-oxo-1-((4-(3-(pyrimidin-4-yl)phenyl)thiazol-2-yl)amino)propan-2-yl)-1-(methylsulfonyl)-1H-pyrrole-3-carboxamide], the IC50 on BRG-1 and on BRM was less than 0.01 µM throughout.

Turning to `COC[C@H](NC(=O)c1ccn(C(C)(C)C)c1)C(=O)Nc1nc(-c2cccc(-c3ccncn3)c2)cs1` [Compound 66, (S)-1-(tert-butyl)-N-(3-methoxy-1-oxo-1-((4-(3-(pyrimidin-4-yl)phenyl)thiazol-2-yl)amino)propan-2-yl)-1H-pyrrole-3-carboxamide], the IC50 on BRG-1 and on BRM was more than 0.01 µM in each case.

Take `C[C@H](NC(=O)c1ccn(S(C)(=O)=O)c1)C(=O)Nc1nc(-c2cccc(-c3ccncc3)c2)cs1` [Compound 68, N-[(1S)-1-methyl-2-oxo-2-[[4-[3-(4-pyridyl)phenyl]thiazol-2-yl]amino]ethyl]-1-methylsulfonyl-pyrrole-3-carboxamide]: the IC50 on BRG-1 and at BRM was less than 0.01 µM each time.

Consider `CS(=O)(=O)n1ccc(C(=O)N[C@@H](CO)C(=O)Nc2nc(-c3cccc(-c4ccncc4)c3)cs2)c1` [Compound 69, (S)—N-(3-hydroxy-1-oxo-1-((4-(3-(pyridin-4-yl)phenyl)thiazol-2-yl)amino)propan-2-yl)-1-(methylsulfonyl)-1H-pyrrole-3-carboxamide], for which the IC50 at BRG-1 and on BRM was less than 0.01 µM each time.

With `CS(=O)(=O)n1ccc(C(=O)N[C@@H](CCO)C(=O)Nc2nc(-c3cccc(-c4ccncc4)c3)cs2)c1` [Compound 71, (S)—N-(4-hydroxy-1-oxo-1-((4-(3-(pyridin-4-yl)phenyl)thiazol-2-yl)amino)butan-2-yl)-1-(methylsulfonyl)-1H-pyrrole-3-carboxamide], the IC50 at BRG-1 was less than 0.01 µM; at BRM, < 0.01 µM and > 0.01 µM.

As for `COCC[C@H](NC(=O)c1ccn(S(C)(=O)=O)c1)C(=O)Nc1nc(-c2cccc(-c3ccncc3)c2)cs1` [Compound 72, (S)—N-(4-methoxy-1-oxo-1-((4-(3-(pyridin-4-yl)phenyl)thiazol-2-yl)amino)butan-2-yl)-1-(methylsulfonyl)-1H-pyrrole-3-carboxamide], the IC50 on BRG-1 and on BRM was less than 0.01 µM each time.

Turning to `CC(C)[C@H](NC(=O)c1ccn(S(C)(=O)=O)c1)C(=O)Nc1nc(-c2cccc(-c3ccncc3)c2)cs1` [Compound 73, (S)—N-(3-methyl-1-oxo-1-((4-(3-(pyridin-4-yl)phenyl)thiazol-2-yl)amino)butan-2-yl)-1-(methylsulfonyl)-1H-pyrrole-3-carboxamide], the IC50 at BRG-1 and on BRM was more than 0.01 µM throughout.

In the case of `CC(C)(C)[C@H](NC(=O)c1ccn(S(C)(=O)=O)c1)C(=O)Nc1nc(-c2cccc(-c3ccncc3)c2)cs1` [Compound 74, (S)—N-(3,3-dimethyl-1-oxo-1-((4-(3-(pyridin-4-yl)phenyl)thiazol-2-yl)amino)butan-2-yl)-1-(methylsulfonyl)-1H-pyrrole-3-carboxamide], the IC50 on BRG-1 and on BRM was more than 1 µM in each case.

For `CC(C)C[C@H](NC(=O)c1ccn(S(C)(=O)=O)c1)C(=O)Nc1nc(-c2cccc(-c3ccncc3)c2)cs1` [Compound 75, (S)—N-(4-methyl-1-oxo-1-((4-(3-(pyridin-4-yl)phenyl)thiazol-2-yl)amino)pentan-2-yl)-1-(methylsulfonyl)-1H-pyrrole-3-carboxamide], the IC50 on BRG-1 and at BRM was more than 0.01 µM throughout.

These data come from US20230079819A1, “COMPOUNDS AND USES THEREOF” (Foghorn Therapeutics Inc., priority 2019, published 2023).
